Measurements as given in ChEMBL document CHEMBL3885861, “Open TG-GATES”.

Organism: Rattus norvegicus
Experiment: Open TG-GATES - Regimen: Daily Repeat
Assay type: toxicity, organism-based, Sprague-Dawley
Design: regimen Daily Repeat, gender Male, age 6 weeks
Conditions: in vivo, po, 1000 mg/kg, route gavage, dose level High; for Bas / Eos / Fbg / Hb / Ht / Lym / MCH / MCHC / MCV / Mono / Neu / PT / Plat / RBC / Ret / WBC / APTT: tissue Blood; for KIDNEY_L / KIDNEY_R / KIDNEY_TOTAL: tissue Kidney; for LIVER: tissue Liver; for ALP / ALT / AST / BUN / CRE / Ca / DBIL / GLC / IP / K / LDH / Na / PL / RALB / TBIL / TC / TG / TP / gamma-GTP / Cl: tissue Plasma

CCOc1ccc(NC(C)=O)cc1 [PHENACETIN]
TERMINAL_BW (72 h, time 3 day): 201.2 g | Bas (72 h, time 3 day): 0% | Eos (72 h, time 3 day): 0.8% | Fbg (72 h, time 3 day): 283.2 mg/dL | Hb (72 h, time 3 day): 12.6 g/dL | Ht (72 h, time 3 day): 37.2% | Lym (72 h, time 3 day): 69.4% | MCH (72 h, time 3 day): 19.9 pg | MCHC (72 h, time 3 day): 33.9% | MCV (72 h, time 3 day): 58.8 fL | Mono (72 h, time 3 day): 3.2% | Neu (72 h, time 3 day): 26% | PT (72 h, time 3 day): 13.3 s | Plat (72 h, time 3 day): 131.8 x10_4/uL | RBC (72 h, time 3 day): 633.4 x10_4/ul | Ret (72 h, time 3 day): 1.5% | WBC (72 h, time 3 day): 108.7 x10_2/uL | KIDNEY_L (72 h, time 3 day): 1 g | KIDNEY_R (72 h, time 3 day): 0.9 g | KIDNEY_TOTAL (72 h, time 3 day): 1.9 g | LIVER (72 h, time 3 day): 11 g | ALP (72 h, time 3 day): 1479.6 IU/L | ALT (72 h, time 3 day): 43.2 IU/L | AST (72 h, time 3 day): 73.6 IU/L | BUN (72 h, time 3 day): 17.8 mg/dL | CRE (72 h, time 3 day): 0.2 mg/dL | Ca (72 h, time 3 day): 11 mg/dL | DBIL (72 h, time 3 day): 0.024 mg/dL | GLC (72 h, time 3 day): 154.6 mg/dL | IP (72 h, time 3 day): 6.3 mg/dL | K (72 h, time 3 day): 4.4 meq/L | LDH (72 h, time 3 day): 77.6 IU/L | Na (72 h, time 3 day): 143.8 meq/L | PL (72 h, time 3 day): 202.4 mg/dL | RALB (72 h, time 3 day): 2.7 g/dL | TBIL (72 h, time 3 day): 0.092 mg/dL | TC (72 h, time 3 day): 111.8 mg/dL | TG (72 h, time 3 day): 87.4 mg/dL | TP (72 h, time 3 day): 5.9 g/dL | gamma-GTP (72 h, time 3 day): 1.4 IU/L | TERMINAL_BW ([…], time 7 day): 234.8 g | TERMINAL_BW ([…], time 14 day): 283.3 g | TERMINAL_BW ([…], time 28 day): 363.6 g | APTT ([…], time 7 day): 22.5 s | Bas ([…], time 7 day): 0.4% | Eos ([…], time 7 day): 0.4% | Fbg ([…], time 7 day): 319.6 mg/dL | Ht ([…], time 7 day): 33.4% | Lym ([…], time 7 day): 62.2% | MCH ([…], time 7 day): 22.7 pg | MCHC ([…], time 7 day): 31.2% | MCV ([…], time 7 day): 72.7 fL | Mono ([…], time 7 day): 3% | Neu ([…], time 7 day): 33.4% | PT ([…], time 7 day): 13.6 s | Plat ([…], time 7 day): 156.2 x10_4/uL | RBC ([…], time 7 day): 463.8 x10_4/ul | Ret ([…], time 7 day): 17.7% | WBC ([…], time 7 day): 178.5 x10_2/uL | APTT ([…], time 14 day): 19 s | Bas ([…], time 14 day): 0.2% | Eos ([…], time 14 day): 0.8% | Fbg ([…], time 14 day): 263.6 mg/dL | Ht ([…], time 14 day): 43.1% | Lym ([…], time 14 day): 72% | MCH ([…], time 14 day): 25.1 pg | MCHC ([…], time 14 day): 32% | MCV ([…], time 14 day): 78.4 fL | Mono ([…], time 14 day): 3.2% | Neu ([…], time 14 day): 23.6% | PT ([…], time 14 day): 13.7 s | Plat ([…], time 14 day): 108.2 x10_4/uL | RBC ([…], time 14 day): 550.4 x10_4/ul | WBC ([…], time 14 day): 119.8 x10_2/uL | APTT ([…], time 28 day): 18.1 s | Bas ([…], time 28 day): 0% | Eos ([…], time 28 day): 1% | Fbg ([…], time 28 day): 251.2 mg/dL | Hb ([…], time 28 day): 13.7 g/dL | Lym ([…], time 28 day): 66.8% | MCH ([…], time 28 day): 24.3 pg | MCHC ([…], time 28 day): 33.3% | MCV ([…], time 28 day): 72.8 fL | Mono ([…], time 28 day): 3.2% | Neu ([…], time 28 day): 28.4% | Plat ([…], time 28 day): 106.4 x10_4/uL | RBC ([…], time 28 day): 566.6 x10_4/ul | Ret ([…], time 28 day): 11.5% | WBC ([…], time 28 day): 134.5 x10_2/uL | KIDNEY_L ([…], time 7 day): 1.1 g | KIDNEY_R ([…], time 7 day): 1.1 g | KIDNEY_TOTAL ([…], time 7 day): 2.2 g | KIDNEY_L ([…], time 14 day): 1.3 g | KIDNEY_R ([…], time 14 day): 1.3 g | KIDNEY_TOTAL ([…], time 14 day): 2.5 g | KIDNEY_L ([…], time 28 day): 1.5 g | KIDNEY_R ([…], time 28 day): 1.5 g | KIDNEY_TOTAL ([…], time 28 day): 3 g | LIVER ([…], time 7 day): 11.9 g | LIVER ([…], time 14 day): 13.2 g | ALP ([…], time 7 day): 1794.2 IU/L | ALT ([…], time 7 day): 46.4 IU/L | AST ([…], time 7 day): 73.2 IU/L | BUN ([…], time 7 day): 16 mg/dL | CRE ([…], time 7 day): 0.2 mg/dL | Ca ([…], time 7 day): 11 mg/dL | Cl ([…], time 7 day): 104.8 meq/L | DBIL ([…], time 7 day): 0.04 mg/dL | GLC ([…], time 7 day): 167.4 mg/dL | IP ([…], time 7 day): 5.9 mg/dL | K ([…], time 7 day): 4.5 meq/L | LDH ([…], time 7 day): 81.4 IU/L | Na ([…], time 7 day): 144 meq/L | PL ([…], time 7 day): 172.4 mg/dL | RALB ([…], time 7 day): 2.7 g/dL | TBIL ([…], time 7 day): 0.2 mg/dL | TC ([…], time 7 day): 75.6 mg/dL | TG ([…], time 7 day): 160 mg/dL | TP ([…], time 7 day): 6 g/dL | gamma-GTP ([…], time 7 day): 1.2 IU/L | ALP ([…], time 14 day): 1457 IU/L | ALT ([…], time 14 day): 43.2 IU/L | AST ([…], time 14 day): 68 IU/L | CRE ([…], time 14 day): 0.2 mg/dL | Ca ([…], time 14 day): 10.8 mg/dL | Cl ([…], time 14 day): 103.8 meq/L | DBIL ([…], time 14 day): 0.036 mg/dL | GLC ([…], time 14 day): 168.8 mg/dL | IP ([…], time 14 day): 6.2 mg/dL | K ([…], time 14 day): 4.5 meq/L | LDH ([…], time 14 day): 154 IU/L | Na ([…], time 14 day): 143.2 meq/L | PL ([…], time 14 day): 176.6 mg/dL | RALB ([…], time 14 day): 2.7 g/dL | TBIL ([…], time 14 day): 0.1 mg/dL | TC ([…], time 14 day): 81.6 mg/dL | TG ([…], time 14 day): 171.4 mg/dL | TP ([…], time 14 day): 5.9 g/dL | gamma-GTP ([…], time 14 day): 1.4 IU/L | ALP ([…], time 28 day): 1375.4 IU/L | ALT ([…], time 28 day): 51.4 IU/L | AST ([…], time 28 day): 72.2 IU/L | BUN ([…], time 28 day): 21.4 mg/dL | CRE ([…], time 28 day): 0.3 mg/dL | Ca ([…], time 28 day): 10.8 mg/dL | Cl ([…], time 28 day): 102.8 meq/L | DBIL ([…], time 28 day): 0.038 mg/dL | GLC ([…], time 28 day): 157 mg/dL | IP ([…], time 28 day): 6.6 mg/dL | K ([…], time 28 day): 4.4 meq/L | LDH ([…], time 28 day): 70.8 IU/L | Na ([…], time 28 day): 145.2 meq/L | PL ([…], time 28 day): 171 mg/dL | RALB ([…], time 28 day): 2.8 g/dL | TBIL ([…], time 28 day): 0.1 mg/dL | TC ([…], time 28 day): 81.2 mg/dL | TG ([…], time 28 day): 125.6 mg/dL | TP ([…], time 28 day): 6.3 g/dL | gamma-GTP ([…], time 28 day): 1.2 IU/L
